Reference: ChEMBL document CHEMBL1151126, “Studies on inhibitors of skin tumor promotion, III. Inhibitory effects of isoflavonoids from Wisteria brachybotrys on Epstein-Barr virus activation” (J Nat Prod, 1988)
The source made the active and inactive calls. The rule behind the calls is not given here.

Key:
[1] = tested on: Raji; assay: Inhibition of 12-O-tetradecanoylphorbol-13-acetate-induced EBV-early antigen activation in human Raji cells assessed as early antigen induction at 1000 molar ratio after 48 hrs by indirect immunofluorescence technique relative to TPA; assay type: cell-based; design: scale not given: the % may be the effect or the level left; conditions: human gammaherpesvirus 4
[2] = Cytotoxicity against human Raji cells assessed as cell viability at 1000 molar ratio; assay type: cell-based; conditions: read-out: Activity
[3] = tested on: Raji; assay: Inhibition of 12-O-tetradecanoylphorbol-13-acetate-induced EBV-early antigen activation in human Raji cells assessed as early antigen induction at 10 molar ratio after 48 hrs by indirect immunofluorescence technique relative to TPA; assay type: cell-based; design: scale not given: the % may be the effect or the level left; conditions: human gammaherpesvirus 4
[4] = tested on: Raji; assay: Inhibition of 12-O-tetradecanoylphorbol-13-acetate-induced EBV-early antigen activation in human Raji cells assessed as early antigen induction at 10000 molar ratio after 48 hrs by indirect immunofluorescence technique relative to TPA; assay type: cell-based; design: scale not given: the % may be the effect or the level left; conditions: human gammaherpesvirus 4
[5] = tested on: HeLa; assay: Cytotoxicity in human HeLa cells assessed as effect on cell viability at 50 uM after 1 hr; assay type: cell-based
[6] = organism: Mus musculus; assay: Displacement of [3H]TPA from TPA receptor in ICR mouse epidermal particulate fraction by Me2CO filter method
[7] = tested on: Raji; assay: Inhibition of 12-O-tetradecanoylphorbol-13-acetate-induced EBV-early antigen activation in human Raji cells assessed as early antigen induction at 100 molar ratio after 48 hrs by indirect immunofluorescence technique relative to TPA; assay type: cell-based; design: scale not given: the % may be the effect or the level left; conditions: human gammaherpesvirus 4
[8] = Cytotoxicity against human Raji cells assessed as cell viability at 10000 molar ratio; assay type: cell-based; conditions: read-out: Activity
[9] = Cytotoxicity against human Raji cells assessed as cell viability at 100 molar ratio; assay type: cell-based; conditions: read-out: Activity
[10] = tested on: HeLa; assay: Inhibition of TPA-stimulated [32P] incorporation into phospholipids in human HeLa cells at 50 uM after 1 hr; assay type: functional
[11] = tested on: HeLa; assay: Cytotoxicity in human HeLa cells assessed as decrease in cell number at 50 uM after 1 hr; assay type: cell-based
[12] = tested on: Raji; assay: Inhibition of EBV-early antigen activation in human Raji cells assessed as early antigen activation at 320 nM; assay type: cell-based; design: scale not given: the % may be the effect or the level left; conditions: human gammaherpesvirus 4
[13] = Cytotoxicity against human Raji cells assessed as cell viability at 10 molar ratio; assay type: cell-based; conditions: read-out: Activity

| Compound | Activity [1] [%] | viability at 1000 molar ratio [2] [%] | Activity [3] [%] | Activity [4] [%] | Activity [5] | Activity [6] | Activity [7] [%] | viability at 10000 molar ratio [8] [%] | viability at 100 molar ratio [9] [%] | inhibition at 50 µM [10] [%] | Activity [11] | Activity [12] [%] | viability at 10 molar ratio [13] [%] |
| --- | --- | --- | --- | --- | --- | --- | --- | --- | --- | --- | --- | --- | --- |
| COc1ccc(-c2coc3cc(OC(C)=O)c(OC)cc3c2=O)cc1 | 6 | > 80 | 72.7 | 0 | Non-toxic | inactive | 42.3 | 80 | > 80 | 33.9 | Non-toxic | 2.1 | 100 |
| C=C[C@]1(C)CC[C@@](C)(C(C)C)c2cc3c4c(c[nH]c4c21)C[C@@H](CO)NC(=O)[C@H](C(C)C)N3C |  |  |  |  |  | Active |  |  |  |  |  |  |  |
| COc1ccc(-c2coc3cc(O[C@@H]4O[C@H](CO)[C@@H](O)[C@H](O)[C@H]4O)c(OC)cc3c2=O)cc1 [WISTIN] | 78.5 | > 80 | 100 | 15.2 | Non-toxic |  | 86.6 | 50 | > 80 | 0 | Non-toxic | 0 | 100 |
| COc1ccc(-c2coc3cc(O)c(OC)cc3c2=O)cc1 [CASTANIN] | 36.4 | > 80 | 100 | 0 | Non-toxic | inactive | 75.8 | 80 | > 80 | 16.4 | Non-toxic | 34 | 100 |
| CCCCCCCCCCCCCC(=O)O[C@@H]1[C@@H](C)[C@@]2(O)[C@@H](C=C(CO)C[C@]3(O)C(=O)C(C)=C[C@@H]23)[C@@H]2C(C)(C)[C@]12OC(C)=O |  |  |  |  |  | Active |  |  |  |  |  |  |  |
| COc1ccc(-c2coc3cc(O[C@@H]4O[C@H](CO)[C@@H](O)[C@H](O)[C@H]4O)ccc3c2=O)cc1 [ONONIN] | 76 | > 80 | 100 | 39.3 | Non-toxic |  | 100 | 80 | 100 | 12.3 | Non-toxic | 2 | 100 |
| COc1ccc(-c2coc3cc(O)ccc3c2=O)cc1 [FORMONONETIN] | 63.6 | > 80 | 100 | 0 | Non-toxic | inactive | 92.6 | 20 | > 80 | 34.5 | Non-toxic | 0 | 100 |
| COc1ccc(-c2coc3cc(OC(C)=O)ccc3c2=O)cc1 | 15.2 | > 80 | 100 | 0 | Non-toxic |  | 95.2 | 80 | 100 | 40.2 | Non-toxic | 0 | 100 |
